Results reported in patent US20070037205A1, “Methods and apparatus for cell based screening” (priority 2001, published 2007).

Tested on: HT-29 cells
Experiment: HT-29 cytotoxicity assay (resazurin), with or without IFN-γ pretreatment
Format: cell-based, human
Conditions: IFN-γ treatment alone (data not shown)
Description: HT-29 cells (ATCC HTB-38) were cultured in McCoy's 5a Medium with 25 mM HEPES and supplemented with 10% fetal calf serum, 1× nonessential amino acids, 2 mM L-glutamine, 1 mM sodium pyruvate, 100 U/ml penicillin/100 ug/ml streptomycin (complete medium) at 37° C. in a humidified 5% CO2 cabinet. The cellular monolayer was washed with PBS and adherent cells were removed by treatment with 0.25% typsin/0.05% EDTA. The cells were collected by centrifugation and resuspended in complete medium. Cell number and viability was determined by Trypan Blue exclusion staining.
Duplicate plates of HT-29 cells were prepared by seeding cells into clear bottom, black walled 96 well tissue culture treated microplates (Corning 3904) at 5000 cells/well in a volume of 150 μl per well. […] Reduction of resazurin due to metabolic activity causes the dye to change from a non-fluorescent to fluorescent product that can be measured at 530 nm excitation and 590 nm emission wavelengths. Relative Fluorescent Units (RFU) was measured in a Fluoroskan Ascent microplate fluorometer (Thermo/Labsystems) in a bottom-read mode with excitation at 530 nm and emission at 590 nm. […]
Extracts that scored positive in the primary screen were evaluated for tumor cell death in a dose-dependent cytotoxicity assay. […] Inhibition of cellular growth was determined using resazurin indicator dye as described above. […]

In the case of “IFN-γ: recombinant human IFN-γ (R & D Systems), sensitizing agent”, the “growth inhibitory effect on HT-29 cells” value was “no growth inhibitory effect”.
